Experimental data reported in ChEMBL document CHEMBL1201862, “PubChem BioAssay data set” (2004).
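All cell lines were grown in 96-well plates and treated with compound for 48 hours. Here, GI50 denotes the concentration required for 50% inhibition of growth.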 Active and inactive are the calls of the source. Rule as the data show it: active = GI50 up to about 1.1 µM and inactive = higher.

How the values were obtained:
Test in all cases: DTP human tumour cell line panel, 48 h
[1] = system: 786-0
[2] = system: A549
[3] = system: ACHN
[4] = system: CCRF-CEM
[5] = system: COLO 205
[6] = system: DU-145
[7] = system: EKVX
[8] = system: HCC 2998
[9] = system: HCT-116
[10] = system: HCT-15
[11] = system: HOP-62
[12] = system: HT-29
[13] = system: Hs-578T
[14] = system: IGROV-1
[15] = system: K562
[16] = system: KM12
[17] = system: LOX IMVI
[18] = system: M14
[19] = system: MCF7
[20] = system: MDA-MB-435
[21] = system: MDA-N
[22] = system: MOLT-4
[23] = system: NCI-H23
[24] = system: NCI-H460
[25] = system: NCI-H522
[26] = system: NCI/ADR-RES
[27] = system: OVCAR-3
[28] = system: OVCAR-5
[29] = system: OVCAR-8
[30] = system: PC-3
[31] = system: RPMI-8226
[32] = system: SF-268
[33] = system: SF-295
[34] = system: SF-539
[35] = system: SK-MEL-28
[36] = system: SK-MEL-2
[37] = system: SK-MEL-5
[38] = system: SN12C
[39] = system: SNB-19
[40] = system: SNB-75
[41] = system: SR
[42] = system: SW-620
[43] = system: T47D
[44] = system: TK-10
[45] = system: UACC-257
[46] = system: UACC-62
[47] = system: UO-31
[48] = system: A498
[49] = system: CAKI-1
[50] = system: HL-60
[51] = system: HOP-92
[52] = system: MDA-MB-231
[53] = system: Malme-3M
[54] = system: NCI-H226
[55] = system: OVCAR-4
[56] = system: RXF 393
[57] = system: SK-OV-3
[58] = system: U-251

For `CCC1C(c2cccc(OC)c2O)c2cc3c(cc2OC1N1CCCC1)OCO3` (stereo unspecified), which GI50 [1] is on record?
The GI50 was 16.1 µM (inactive).

What about the GI50 [2] of the same compound?
The GI50 was 17.4 µM (inactive).

And the GI50 [3]?
The GI50 was 15 µM (inactive).

What about the GI50 [4] of the same compound?
Its GI50 is 12.6 µM (inactive).

What about the GI50 [5] of the same compound?
Its GI50 is > 10 µM (inactive).

And the GI50 [6]?
The GI50 was > 10 µM (inactive).

What about the GI50 [7] of the same compound?
The GI50 was 22.8 µM (inactive).

What about the GI50 [8] of the same compound?
Its GI50 is 10 µM (inactive).

And the GI50 [9]?
The GI50 was 8.47 µM (inactive).

And the GI50 [10]?
Its GI50 is 12.2 µM.

And the GI50 [11]?
The GI50 was 18.4 µM (inactive).

What about the GI50 [12] of the same compound?
The GI50 was 16.5 µM (inactive).

What about the GI50 [13] of the same compound?
Its GI50 is 3.75 µM (inactive).

And the GI50 [14]?
Its GI50 is 14.9 µM (inactive).

And the GI50 [15]?
The GI50 was 11.8 µM (inactive).

What about the GI50 [16] of the same compound?
The GI50 was 12 µM (inactive).

And the GI50 [17]?
Its GI50 is 23.3 µM (inactive).

What about the GI50 [18] of the same compound?
Its GI50 is 6.43 µM (inactive).

And the GI50 [19]?
Its GI50 is 22.2 µM (inactive).

What about the GI50 [20] of the same compound?
Its GI50 is 3.85 µM (inactive).

What about the GI50 [21] of the same compound?
Its GI50 is 3.24 µM (inactive).

What about the GI50 [22] of the same compound?
The GI50 was 12.8 µM (inactive).

What about the GI50 [23] of the same compound?
Its GI50 is 26.4 µM (inactive).

What about the GI50 [24] of the same compound?
The GI50 was 20.2 µM (inactive).

And the GI50 [25]?
Its GI50 is 10.7 µM (inactive).

What about the GI50 [26] of the same compound?
Its GI50 is 15.7 µM (inactive).

And the GI50 [27]?
Its GI50 is 13.8 µM (inactive).

What about the GI50 [28] of the same compound?
The GI50 was 20.1 µM (inactive).

And the GI50 [29]?
Its GI50 is 20.6 µM (inactive).

And the GI50 [30]?
Its GI50 is 16.6 µM (inactive).

What about the GI50 [31] of the same compound?
The GI50 was 12.6 µM (inactive).

What about the GI50 [32] of the same compound?
Its GI50 is 16.7 µM (inactive).

What about the GI50 [33] of the same compound?
The GI50 was 16.8 µM (inactive).

And the GI50 [34]?
The GI50 was 12.2 µM (inactive).

And the GI50 [35]?
The GI50 was 16.3 µM (inactive).

And the GI50 [36]?
Its GI50 is 17.1 µM (inactive).

What about the GI50 [37] of the same compound?
The GI50 was 10.4 µM (inactive).

What about the GI50 [38] of the same compound?
The GI50 was 18.1 µM (inactive).

And the GI50 [39]?
The GI50 was 14.6 µM (inactive).

And the GI50 [40]?
The GI50 was 17.7 µM (inactive).

What about the GI50 [41] of the same compound?
Its GI50 is 14.9 µM (inactive).

And the GI50 [42]?
The GI50 was 12.2 µM (inactive).

What about the GI50 [43] of the same compound?
Its GI50 is 16.2 µM (inactive).

What about the GI50 [44] of the same compound?
Its GI50 is 16.4 µM (inactive).

What about the GI50 [45] of the same compound?
The GI50 was 17.8 µM (inactive).

What about the GI50 [46] of the same compound?
The GI50 was 17.5 µM (inactive).

And the GI50 [47]?
Its GI50 is 14.1 µM (inactive).

For `N#Cc1c(O)c2ccccc2[nH]c1=O`, which GI50 [1] is on record?
The GI50 was > 100 µM (inactive).

And the GI50 [48]?
Its GI50 is > 100 µM (inactive).

What about the GI50 [2] of the same compound?
Its GI50 is > 100 µM (inactive).

And the GI50 [3]?
The GI50 was > 100 µM (inactive).

And the GI50 [49]?
Its GI50 is > 100 µM (inactive).

What about the GI50 [4] of the same compound?
Its GI50 is > 100 µM (inactive).

And the GI50 [5]?
Its GI50 is > 100 µM (inactive).

And the GI50 [6]?
The GI50 was > 100 µM (inactive).

What about the GI50 [7] of the same compound?
The GI50 was > 100 µM (inactive).

What about the GI50 [8] of the same compound?
Its GI50 is > 100 µM (inactive).

And the GI50 [9]?
The GI50 was > 100 µM (inactive).

And the GI50 [10]?
Its GI50 is greater than 100 µM.

What about the GI50 [50] of the same compound?
The GI50 was > 100 µM (inactive).

What about the GI50 [11] of the same compound?
Its GI50 is > 100 µM (inactive).

And the GI50 [51]?
Its GI50 is > 100 µM (inactive).

What about the GI50 [12] of the same compound?
The GI50 was > 100 µM (inactive).

And the GI50 [14]?
The GI50 was > 100 µM (inactive).

And the GI50 [15]?
The GI50 was > 100 µM (inactive).

What about the GI50 [16] of the same compound?
Its GI50 is > 100 µM (inactive).

What about the GI50 [17] of the same compound?
The GI50 was > 100 µM (inactive).

What about the GI50 [18] of the same compound?
Its GI50 is > 100 µM (inactive).

And the GI50 [19]?
The GI50 was > 100 µM (inactive).

And the GI50 [52]?
Its GI50 is > 100 µM (inactive).

What about the GI50 [20] of the same compound?
Its GI50 is > 100 µM (inactive).

What about the GI50 [21] of the same compound?
The GI50 was > 100 µM (inactive).

What about the GI50 [22] of the same compound?
The GI50 was > 100 µM (inactive).

What about the GI50 [53] of the same compound?
The GI50 was > 100 µM (inactive).

What about the GI50 [54] of the same compound?
Its GI50 is > 100 µM (inactive).

And the GI50 [23]?
The GI50 was > 100 µM (inactive).

What about the GI50 [25] of the same compound?
The GI50 was > 100 µM (inactive).

And the GI50 [26]?
Its GI50 is > 100 µM (inactive).

And the GI50 [27]?
Its GI50 is > 100 µM (inactive).

What about the GI50 [55] of the same compound?
Its GI50 is > 100 µM (inactive).

What about the GI50 [28] of the same compound?
The GI50 was > 100 µM (inactive).

And the GI50 [29]?
The GI50 was > 100 µM (inactive).

What about the GI50 [30] of the same compound?
The GI50 was > 100 µM (inactive).

What about the GI50 [31] of the same compound?
The GI50 was > 100 µM (inactive).

What about the GI50 [56] of the same compound?
The GI50 was > 100 µM (inactive).

And the GI50 [33]?
The GI50 was > 100 µM (inactive).

And the GI50 [34]?
Its GI50 is > 100 µM (inactive).

What about the GI50 [35] of the same compound?
The GI50 was > 100 µM (inactive).

What about the GI50 [36] of the same compound?
The GI50 was > 100 µM (inactive).

What about the GI50 [37] of the same compound?
Its GI50 is > 100 µM (inactive).

And the GI50 [57]?
Its GI50 is > 100 µM (inactive).

And the GI50 [38]?
The GI50 was > 100 µM (inactive).

And the GI50 [39]?
The GI50 was > 100 µM (inactive).

What about the GI50 [40] of the same compound?
Its GI50 is > 100 µM (inactive).

What about the GI50 [42] of the same compound?
The GI50 was > 100 µM (inactive).

What about the GI50 [43] of the same compound?
The GI50 was > 100 µM (inactive).

What about the GI50 [44] of the same compound?
The GI50 was > 100 µM (inactive).

What about the GI50 [58] of the same compound?
The GI50 was > 100 µM (inactive).

And the GI50 [45]?
Its GI50 is > 100 µM (inactive).

And the GI50 [46]?
The GI50 was > 100 µM (inactive).

What about the GI50 [47] of the same compound?
Its GI50 is > 100 µM (inactive).
